US6706702B2, “Aryl fused azapolycyclic compounds” (Pfizer Inc., priority 1998, dated 2004)

Row | SMILES | melting point
1 | Cl.c1cncc(-c2ccc3c(c2)CC2CNCC3C2)c1 (stereo not shown) | 240 to 242 °C
2 | Cl.FC(F)Oc1ccc2c(c1)CC1CNCC2C1 (stereo not shown) | 230 to 234 °C
3 | Cl.c1c2c(cc3c1OCO3)C1CNCC(C2)C1 (stereo not shown) | 241 to 243 °C
4 | COc1ccc2c(c1)CC1CNCC2C1.Cl (stereo not shown) | 253.5 to 258 °C
5 | COc1cccc2c1CC1CNCC2C1.Cl (stereo not shown) | 272 to 274 °C
6 | Cl.O=[N+]([O-])c1ccc2c(c1)C1CNCC(C2)C1 (stereo not shown) | 215 to 220 °C
7 | Cl.Fc1ccc2c(c1)CC1CC2CN(Cc2ccccc2)C1 (stereo not shown) | 202 to 203 °C
